Assay [1] concerns P. falciparum 3D7. Description: Method III growth inhibition assay (HRP2-ELISA, 3 days), 3D7. The class given is cell-based, Plasmodium falciparum.
The test system of assay [2] is P. falciparum Dd2. Description: Method III growth inhibition assay (HRP2-ELISA, 3 days), Dd2. It is filed as cell-based, Plasmodium falciparum. In general terms: In an ELISA, binding on a coated surface is turned into a signal by an enzyme label.
The test system of assay [3] is P. falciparum 3D7. Description: Method II growth-inhibition assay (PicoGreen, 3 days), 3D7. Conditions: Plasmodium falciparum; 3D7, method II; read-out: IC50 3D7-II. The class given is cell-based. From the text: (§1) Fidock (Columbia University).
In assay [4] the test system is P. falciparum NF54. Description: Method II growth-inhibition assay (PicoGreen, 3 days), NF54. The class given is cell-based. The note with it: Plasmodium falciparum; chloroquine-sensitive NF54, method II.
Text: as §1

Assay [5] has as its system Hep G2 cells. Description: Hep G2 viability assay (counter screen). It is filed as cell-based, human. The note with it: Homo sapiens, HepG2; at 10 μM. On the procedure: HepG2 cells (2 × 10^5 cells per well) were seeded in 24-well, flat-bottomed plates. Culturing of cells, incubations, and OD measurements were performed as described previously with small modifications.[58] 24 h after seeding the cells, the incubation was started by the addition of compounds in a final DMSO concentration of 1%. The metabolic activity of the living cell mass was determined after 48 h. At least three independent measurements were performed for each compound. The IC50 values were determined during logarithmic growth using GraphPad Prism software. All experiments were performed at least in triplicate, and data reported represent the mean ± SD.

[6] abbreviates: 3D7, method III (HRP2 assay), drc package of R, read-out: IC50 P. falciparum 3D7 (method III).
Setting [7] is: table of compounds as SMILES with biological activity, strain not given, values match 3D7 method III, read-out: IC50.
The mark [8] stands for this setting: chloroquine-resistant Dd2, method III.
[9] abbreviates: Plasmodium falciparum, 3D7, table of compounds as SMILES with biological activity, strain not given, values match 3D7 method III, read-out: IC50.
Where [10] appears, read: Plasmodium falciparum, 3D7, 3D7, method III (HRP2 assay), drc package of R, read-out: IC50 P. falciparum 3D7 (method III).
Where [11] appears, read: Plasmodium falciparum, DD2, chloroquine-resistant Dd2, method III.

Several values for one entry are separate records, joined by “and”; a condition that tells them apart may be missing. Equal values may be shown once.

The values that follow come from paper PMC10928712, “High Target Homology Does Not Guarantee Inhibition: Aminothiazoles Emerge as Inhibitors of Plasmodium falciparum” (ACS Infectious Diseases, 2024).

As to “2′,4′-Dimethyl-N-(4-(trifluoromethyl)phenyl)-[5,5′-bithiazol]-2-amine [compound 41]”, the IC50 – broadly, the concentration needed to halve the response being measured – in assay [1] (setting [6]) is ~10 µM and 10 µM; in assay [1] (setting [7]), 9.5 µM; in assay [2] (setting [8]) it was 5 µM.

Regarding “4-(2-((4-(Trifluoromethyl)phenyl)amino)thiazol-5-yl)benzene-1,3-diol [compound 38]”, the IC50 in assay [1] (setting [6]) is 22 ± 6 µM; in assay [1] (setting [7]) it was 22.1 µM.

Take “5-(Pyridin-4-yl)-N-(4-(trifluoromethyl)phenyl)thiazol-2-amine [compound 36]”: the IC50 in assay [1] (setting [6]) was 34 ± 2 µM; in assay [1] (setting [7]), 34.2 µM.

In the case of `COc1ccc(C(Cc2ccc(Cl)cc2)=NO)cn1` [7E, 2-(4-Chlorophenyl)-1-(6-methoxypyridin-3-yl)ethan-1-one oxime], the IC50 is 44 ± 10 µM in assay [1] (setting [6]), 43.6 µM in assay [1] (setting [9]) and over 55 µM in assay [2] (setting [8]).

In the case of `COc1ccc(C(Cc2ccc(Cl)cc2)=NO)cn1` [7Z, 2-(4-Chlorophenyl)-1-(6-methoxypyridin-3-yl)ethan-1-one oxime], the IC50 in assay [1] (setting [6]) and in assay [2] (setting [8]) was over 111 µM throughout.

For the compound `ON=C(Cc1ccc(Cl)cc1)c1ccc(O)nc1` [8E, 2-(4-Chlorophenyl)-1-(6-hydroxypyridin-3-yl)ethan-1-one oxime], the IC50 in assay [1] (setting [6]) and in assay [2] (setting [8]) was over 111 µM throughout.

For the compound `ON=C(Cc1ccc(Cl)cc1)c1ccc(O)nc1` [8Z, 2-(4-Chlorophenyl)-1-(6-hydroxypyridin-3-yl)ethan-1-one oxime], the IC50 in assay [1] (setting [6]) and in assay [2] (setting [8]) was over 28 µM in each case.

For `COc1ccc(C(Cc2ccc(Cl)cc2)=NO)c(O)c1` [compound 9], the IC50 in assay [1] (setting [10]) was 47 ± 15 µM; in assay [1] (setting [9]), 46.8 µM; in assay [2] (setting [11]), 24 ± 6 µM.

Regarding `CON=C(Cc1ccc(Cl)cc1)c1ccc(O)cc1O` [compound 11, (E)-2-(4-Chlorophenyl)-1-(2,4-dihydroxyphenyl)ethan-1-one o-Methyl Oxime], the IC50 in assay [1] (setting [10]) was 28 ± 9 µM; in assay [2] (setting [11]), 19 ± 3 µM.

Regarding `NN=C(Cc1ccc(Cl)cc1)c1ccc(O)cc1O` [compound 12], the IC50 was found to be 46 ± 3 µM in assay [3], 45 ± 7 µM in assay [4], 16 µM in assay [1] (setting [10]) and 14 ± 5 µM in assay [2] (setting [11]).

Consider `OCc1cn(Cc2ccc(Cl)c(Cl)c2)c2ncccc12` [compound 14, (1-(3,4-Dichlorobenzyl)-1H-pyrrolo[2,3-b]pyridin-3-yl)methanol], for which the IC50 in assay [1] (setting [10]) is over 111 µM; in assay [2] (setting [11]), 91 ± 18 µM.

Turning to `OCc1cn(-c2ccc(Cl)c(Cl)c2)c2ccccc12` [compound 15, (1-(3,4-Dichlorophenyl)-1H-indol-3-yl)methanol], the IC50 in assay [1] (setting [10]) is over 56 µM; in assay [1] (setting [9]), 55.5 µM; in assay [2] (setting [11]), 54 ± 6 µM.

Turning to `COc1cccc2c(CO)cn(Cc3ccc(Cl)c(Cl)c3)c12` [compound 16], the figures for the IC50 in assay [1] (setting [10]), in assay [1] (setting [9]) and in assay [2] (setting [11]) were over 56 µM, 55.5 µM and 48 ± 13 µM, respectively.

As to `N#Cc1ccc2c(CO)cn(Cc3ccc(Cl)c(Cl)c3)c2c1` [compound 17], the IC50 came out at 44 ± 19 µM in assay [1] (setting [10]), 43.8 µM in assay [1] (setting [9]) and 44 ± 9 µM in assay [2] (setting [11]).

Take `OCc1nn(Cc2ccc(Cl)c(Cl)c2)c2ccccc12` [compound 18, (1-(3,4-Dichlorobenzyl)-1H-indazol-3-yl)methanol]: the 50% inhibitory concentration (IC50) stood at 34 µM in assay [1] (setting [10]), 33.9 µM in assay [1] (setting [9]) and 70 ± 21 µM in assay [2] (setting [11]).

With `OCCc1cn(Cc2ccc(Cl)c(Cl)c2)c2ccccc12` [compound 19, 2-(1-(3,4-Dichlorobenzyl)-1H-indol-3-yl)ethan-1-ol], the IC50 was found to be 29 ± 1 µM in assay [1] (setting [10]), 28.9 µM in assay [1] (setting [9]) and 12 ± 3 µM in assay [2] (setting [11]).

Take `OCc1cn(Cc2ccc(Cl)cc2)c2ccccc12` [compound 20]: the figures for the IC50 in assay [1] (setting [10]), in assay [1] (setting [9]) and in assay [2] (setting [11]) were 28 ± 14 µM, 27.2 µM and 22 ± 5 µM, respectively.

Consider `COc1ccc2c(c1)c(CO)cn2Cc1ccc(Cl)c(Cl)c1` [compound 21, (1-(3,4-Dichlorobenzyl)-5-methoxy-1H-indol-3-yl)methanol], for which the IC50 stood at 19 ± 1 µM in assay [1] (setting [10]), 18.5 µM in assay [1] (setting [9]) and 54 ± 6 µM in assay [2] (setting [11]).

On to `COc1cccc2c1c(CO)cn2Cc1cccc(Cl)c1` [compound 22, (1-(3-Chlorobenzyl)-4-methoxy-1H-indol-3-yl)methanol], for which the IC50 turned out to be 16 ± 3 µM in assay [1] (setting [10]), 13.8 µM in assay [1] (setting [9]), 15.6 µM in assay [1] (setting [7]) and 14 ± 4 µM in assay [2] (setting [11]).

On to `OCc1cn(Cc2ccc(Cl)c(Cl)c2)c2c(Cl)cccc12` [compound 23, (7-Chloro-1-(3,4-dichlorobenzyl)-1H-indol-3-yl)methanol], for which the results for the IC50 in assay [1] (setting [6]), in assay [1] (setting [10]) and in assay [2] (setting [11]) were 14 ± 1 µM, 13 µM and 36 ± 16 µM, respectively.

In the case of `OCc1cn(Cc2cccc(Cl)c2)c2cccc(F)c12` [compound 24, (1-(3-Chlorobenzyl)-4-fluoro-1H-indol-3-yl)methanol], the half-maximal inhibitory concentration (IC50) came out at 12 ± 1 µM in assay [1] (setting [10]) and 10 ± 1 µM in assay [2] (setting [11]).

Turning to `OCc1cn(Cc2ccccc2)c2cccc(F)c12` [compound 25, (1-Benzyl-4-fluoro-1H-indol-3-yl)methanol], the IC50 in assay [1] (setting [10]) is 12 ± 2 µM; in assay [1] (setting [9]) it was 11.9 µM; in assay [2] (setting [11]), 9 µM.

In the case of `Cc1cn(Cc2ccc(Cl)c(Cl)c2)c2ccccc12` [compound 26, 1-(3,4-Dichlorobenzyl)-3-methyl-1H-indole], the IC50 in assay [1] (setting [6]) was 10.2 µM; in assay [1] (setting [10]) it was about 10 µM; in assay [2] (setting [11]), 11 ± 5 µM.

In the case of `OCc1cn(Cc2ccc(Cl)c(Cl)c2)c2cc(F)ccc12` [compound 27, (1-(3,4-Dichlorobenzyl)-6-fluoro-1H-indol-3-yl)methanol], the IC50 is 9 ± 2 µM in assay [1] (setting [6]), under 10 µM in assay [1] (setting [10]), 8.9 µM in assay [1] (setting [9]) and 10 ± 5 µM in assay [2] (setting [11]).

For the compound `Clc1ccc(Cn2ccc3ccccc32)cc1Cl` [compound 28, 1-(3,4-Dichlorobenzyl)-1H-indole], the IC50 was 8.1 µM in assay [1] (setting [6]), about 8 µM in assay [1] (setting [10]) and 18 ± 7 µM in assay [2] (setting [11]).

For `O=[N+]([O-])c1ccc2c(c1)c(CO)cn2Cc1ccc(Cl)c(Cl)c1` [compound 29, (1-(3,4-Dichlorobenzyl)-5-nitro-1H-indol-3-yl)methanol], the IC50 was 7 µM in assay [1] (setting [6]), under 10 µM in assay [1] (setting [10]), 7.2 µM in assay [1] (setting [9]) and 4 ± 1 µM in assay [2] (setting [11]).

Take `OCc1cn(Cc2ccccc2)c2ccc(Br)cc12` [compound 30, (1-Benzyl-5-bromo-1H-indol-3-yl)methanol]: the IC50 is 6 ± 1 µM in assay [1] (setting [6]), under 10 µM in assay [1] (setting [10]), 6.1 µM in assay [1] (setting [9]) and 5 ± 3 µM in assay [2] (setting [11]).

Regarding `COc1cccc2c1c(CO)cn2Cc1ccc(Cl)c(Cl)c1` [compound 31, (1-(3,4-Dichlorobenzyl)-4-methoxy-1H-indol-3-yl)methanol], the IC50 in assay [1] (setting [10]) turned out to be 6 ± 2 µM; in assay [1] (setting [9]), 5.5 µM; in assay [2] (setting [11]) it was 5 ± 2 µM.

In the case of `OCc1cn(Cc2ccc(Cl)c(Cl)c2)c2ccc(F)cc12` [compound 32], the IC50 in assay [1] (setting [6]) is 5 ± 1 µM; in assay [1] (setting [10]) it was under 10 µM; in assay [1] (setting [9]) it was 5.3 µM; in assay [2] (setting [11]), 8 ± 2 µM.

Turning to `COc1ccc(CNCc2cn(Cc3ccc(Cl)c(Cl)c3)c3ccccc23)c(OC)c1` [compound 34, 1-(1-(3,4-Dichlorobenzyl)-1H-indol-3-yl)-N-(2,4-dimethoxybenzyl)methan-amine], in assay [2] (setting [11]), the IC50 was 21 ± 6 µM. In addition, testing at 10 µM in assay [5] gave an inhibition of 90%.

With `Cc1nc(N)sc1-c1csc(Nc2ccccc2C(F)(F)F)n1` [compound 35], the half-inhibitory concentration (IC50) in assay [1] (setting [10]) came to 43 ± 2 µM; in assay [2] (setting [11]), 48 ± 12 µM.

Consider `Oc1ccc(-c2csc(Nc3cccc(C(F)(F)F)c3)n2)c(O)c1` [compound 37], for which the IC50 in assay [1] (setting [10]) is 23 ± 1 µM; in assay [2] (setting [11]), 19 ± 2 µM.

Consider `Cc1ccc(Nc2nc(-c3ccc(O)c(O)c3)cs2)cc1C` [compound 42, 4-(2-((3,4-Dimethylphenyl)amino)thiazol-4-yl)benzene-1,2-diol], for which the IC50 in assay [1] (setting [10]) was 4 ± 1 µM; in assay [1] (setting [9]), 4.4 µM; in assay [2] (setting [11]), 7 ± 1 µM.

With `Cc1ccc(C)c(Nc2nc(-c3ccccn3)cs2)c1` [compound 43, N-(2,5-Dimethylphenyl)-4-(pyridin-2-yl)thiazol-2-amine], the IC50 in assay [1] (setting [10]) was 4 ± 2 µM; in assay [1] (setting [9]) it was 3.7 µM; in assay [2] (setting [11]), 5 ± 1 µM.

For the compound `Cc1nc(N)sc1-c1csc(Nc2cccc(C(F)(F)F)c2)n1` [compound 45], the results for the IC50 in assay [1] (setting [10]), in assay [1] (setting [9]) and in assay [2] (setting [11]) were 3 µM, 2.5 µM and 5 µM, respectively.

Turning to “N-(3-Chloro-2-methylphenyl)-5-(pyridin-2-yl)thiazol-2-amine [compound 44]”, the IC50 came to 3 µM in assay [1] (setting [6]), 2.8 µM in assay [1] (setting [7]) and 2 ± 1 µM in assay [2] (setting [8]).

Turning to “N^2-(3-Chloro-2-methylphenyl)-4′-methyl-[5,5′-bithiazole]-2,2′-diamine [compound 40]”, the results for the IC50 in assay [1] (setting [6]) and in assay [1] (setting [7]) were 16 ± 2 µM and 15.9 µM, respectively.

As to “N^2-(3-Methoxyphenyl)-4′-methyl-[5,5′-bithiazole]-2,2′-diamine [compound 39]”, the results for the IC50 in assay [1] (setting [6]) and in assay [1] (setting [7]) were 18 µM and 17.9 µM, respectively.
